Assay results from patent US5691310A, “Methods of treatment using proANF peptides” (priority 1995, dated 1997).

Tests used:
porcine aorta = assay: vasodilation of porcine aortic strips preconstricted with 0.3 micromolar phenylephrine; design: species or system pig
Procedure: 30 Kg pigs are sacrificed, and aortic strips are harvested. The strips are attached to F-60 transducer (Narco-BioSystems, Houston, Tex.) and attached to a physiography (Narco-BioSystems) while being submerged in a muscle tissue bath comprising a Krebs Ringer solution at 37° C., with 95% 02 -5% CO2, bubbled through the bath. Percentage vasodilation is measured versus time (as reported in FIG. 1) after preconstriction with 0.3 micromolar phenylephrine.

[1] = tested on: particulate guanylate cyclase; assay: cyclic GMP / particulate guanylate cyclase activation in cultured smooth muscle cells and porcine aorta; assay type: cell-based; conditions: cultured smooth muscle cells
Munich-Wistar rats = assay: rat clearance model (diuresis and salt excretion); assay type: in vivo
Procedure: The same three peptides and ANF from Example I are tested using the rat clearance model. Six control rats and six experimental Munich-Wistar rats, each weighing 150-200 grams, are used for each peptide, with catheters being placed in both jugular veins and in the femoral artery. The ureters are cannulated for simultaneous urine collections with femoral artery blood collections.
After inserting the catheters, a stabilization of one hour is allowed. A 10 μg/kg bolus of each of the respective human sequences of the peptides is given via the jugular vein to six experimental rats followed by a sustaining infusion of 0.1 μg/kg/min for 60 minutes. Blood and urine samples are collected at 20 minute intervals during this 60 minute infusion. In both the control and experimental animals, hematocrits and plasma sodium values remained at the same levels pre- and post-infusion while blood pressure decreased with each of these peptides (see Attachment B).

[2] = tested on: particulate guanylate cyclase; assay: particulate guanylate cyclase activity in the kidney; assay type: biochemical; conditions: 1 μM; whole kidney homogenates, renal cortical and medullary membranes, isolated distal nephron
Procedure: Testing is also carried out to determine biologic effects of these peptides by measuring their effects on particulate guanylate activity in the kidney.

[3] = overcoming the negative ionotropic effect of Verapamil
healthy human subjects = assay: infusion into healthy human subjects; assay type: in vivo; conditions: healthy humans
Procedure: Infusion of these peptides into healthy human subjects was performed as follows: Human pro-ANF 1-30, pro-ANF 31-67, and pro-ANF 79-98, and hANF (i.e., pro-ANF […], were synthesized by Peninsula Laboratories (Belmont, Calif.). High pressure liquid chromatography (HPLC) analysis was performed on a sample of each of the four peptides to ensure purity. The peptides were dissolved in a sterile 0.9% saline solution to a concentration of 100 μg/ml and dispensed in 2 and 5 ml aliquots into sealed sterile vials. At the time of dispensing, randomly selected vials were tested for pyrogens and sterility. Prior to labeling the vials, the actual peptide content of the dispensed solution were determined by direct radioimmunoassay to account for any possible absorption of the respective peptides to the walls of the vials. All vials were then stored at -80° C. until thawed for individual study.
Normal healthy subjects were chosen on the basis of age (between 20 and 50 years), physical examination and biochemical screenings. The subjects consumed their normal diets prior to testing. The subjects fasted overnight and were tested in the morning in the seated position. Intravenous catheters were placed bilaterally for the administration of pro-hANF 1-30, pro-hANF 31-67, pro-hANF 79-98 and hANF [pro-hANF 99-126] and for blood sampling. After completion of a 45-minute equilibration period, there were three 60-minute phases of the study: baseline, experimental infusion (60 minutes) and recovery (3 hours). The baseline phase consisted of two 30 minute urine collection periods, the experimental phase consisted of three 20 minute urine and plasma collection periods, and the recovery phase consisted of two 30 minute urine and plasma collection periods each hour for three hours post-infusion. Urine output was replaced on a milliliter per milliliter basis throughout the study by administering oral water or orange juice. Urine samples were obtained by voiding at the designated collection periods.
The 36 subjects were divided into 6 groups. One group (i.e., the control group) received a placebo infusion of 0.9% sodium chloride during the experimental infusion phase. […] The four remaining groups of six subjects each received human pro-hANF 1-30, pro-hANF 31-67, pro-hANF 79-98 and hANF. The four groups received the peptides by continuous infusion at the rate of 0.1 μg/kg per minute. The volume administered per hour during the experimental infusion phase was 10 ml for all four peptides and the placebo. All infusions were given by a constant-rate infusion pump, with the final concentrations of prohANFs adjusted for the subjects' body weight. The subjects heart rate and cuff blood pressure were taken at 5 minute intervals throughout the study. The excreted urine was analyzed for sodium concentration.

[4] = tested on: human subjects with class II New York Heart Association congestive heart failure; assay: infusion into human subjects with congestive heart failure; assay type: in vivo
Procedure: Human proANF's 1-30, 31-67, 79-98, and 99-126 (i.e., ANF) were infused into human subjects with class II New York Heart Association congestive heart failure. An identical protocol to that used in example V where these peptides were infused into healthy human subjects was utilized. (See Attachment C for a detailed description of this protocol). The human subjects with congestive heart failure received an identical dose (0.1 μg/kg body wt/minute for 60 minutes) that the healthy human subjects received.

[5] = tested on: rats who have acute renal failure; assay: blood urea nitrogen in rats with acute renal failure; assay type: in vivo, rat; conditions: over three days
Excerpt: FIG. 6. ProANF 31-67 (i.e., vessel dilator) prevents the rise in blood urea nitrogen (BUN) in rats who have acute renal failure.

[6] = tested on: renal medullary Na+-K+-ATPase; assay: inhibition of renal medullary Na+-K+-ATPase activity; assay type: biochemical; conditions: 10^-11 M
[7] = congestive heart failure, 0.1 μg/kg body wt/minute

## H-EVVPPQVLSEPNEEAGAALSPLPEVPPWTGEVSPAQR-OH [proANF 31-67, H-Glu-Val-Val-Pro-Pro-Gln-Val-Leu-Ser-Glu-Pro-Asn-Glu-Glu-Ala-Gly-Ala-Ala- Leu-Ser-Pro-Leu-Pro-Glu-Val-Pro-Pro-Trp-Thr-Gly-Glu-Val-Ser-Pro-Ala-Gln-Arg-OH]
Porcine aorta; associated with vasodilation of porcine aorta
  increase in cyclic GMP levels over baseline levels: four-to-five
Porcine aorta; porcine aorta
  vasodilation: cause vasodilation
[1]
  cyclic GMP levels: increase cyclic GMP levels
Munich-Wistar rats; period A, control period (before peptide)
  UNa V, urinary sodium excretion rate: 144.08 ± 56.75 μeq-min^-1 -g kidney wt^-1
Munich-Wistar rats; period B, 1st 60min experimental period, 10 μg/kg bolus then 0.1 μg/kg/min
  UNa V, urinary sodium excretion rate: 1,057.68 ± 371.69 μeq-min^-1 -g kidney wt^-1
Munich-Wistar rats; period C, 2nd 60min experimental period
  UNa V, urinary sodium excretion rate: 1,077.63 ± 306.10 μeq-min^-1 -g kidney wt^-1
[2]
  particulate guanylate cyclase activity: enhance particulate guanylate cyclase
[3]
  negative ionotropic (slowing heartbeat) effect of Verapamil: can overcome the negative ionotropic (slowing heartbeat) effect
Healthy human subjects
  increase of urine flow: 4-12 fold
Healthy human subjects; 100 ng/kg body wt per minute for 1 hour i.v.
  urine volume / urine flow (in words): increase in urine volume
Healthy human subjects; 100 ng/kg body wt per minute for 60 minutes
  sodium excretion compared to baseline (in words): significantly (P<0.05) increased sodium excretion
Healthy human subjects; 100 ng/kg/min i.v. for 60 minutes
  systolic and diastolic blood pressures: decreasing systolic and diastolic blood pressures
[4]; congestive heart failure
  urine output at 3 hours after stopping the infusion relative to pre-infusion values: 10 fold
[4]; congestive heart failure patients
  diuretic properties (in words): stronger diuretic properties than ANF
[4]; [7]
  urine output in 20 minutes of infusion: doubled
  urine output increase at the end of the 60 minute infusion: 7 fold
[4]; congestive heart failure, 3 hours after stopping the infusion (pre-infusion 30 mls)
  urine output per 30 minute period: 320 mls
[4]; human subjects with congestive heart failure
  increase of sodium excretion: three-to-eight
[4]; humans with congestive heart failure
  time after stopping the infusion for which diuresis / urine flow is still significantly (P<0.01) elevated: at least 3 hours
[5]
  rise in blood urea nitrogen (BUN): completely blocked the increase in BUN
[6]
  inhibition of renal medullary Na+-K+-ATPase activity: Inhibition of renal medullary Na+-K+-ATPase activity
